# Assay results reported in the supplement of paper PMC10307832.
# Experiments:
# Test in all cases: relative viability (nuclei count vs DMSO), 5 days (fraction); higher = more cells survive
# GW-2580 = compound: COC1=CC=C(C=C1)COC2=C(C=C(C=C2)CC3=CN=C(N=C3N)N)OC [GW-2580]
# Summary of the method: (§1)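 Viability was read as treated-well nuclei divided by vehicle-well nuclei, using the median across plates. Lung cancer cell lines in 1536-well plates were kept overnight at 37 °C, pinned with five √10-spaced library-drug doses, and after 5 days were Hoechst-stained, imaged at 4× and counted in MetaXpress. Plates passed only with control CV below 25% and at least one doubling.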
# Fedratinib = compound: Cc1cnc(Nc2ccc(OCCN3CCCC3)cc2)nc1Nc1cccc(S(=O)(=O)NC(C)(C)C)c1 [Fedratinib]
# Summary of the method: as §1
# GW-2580 + OSI-027 = compound: COC1=CC=C(C=C1)COC2=C(C=C(C=C2)CC3=CN=C(N=C3N)N)OC [GW-2580] + COc1cccc2cc(-c3nc([C@H]4CC[C@H](C(=O)O)CC4)n4ncnc(N)c34)[nH]c12 [OSI-027] (partner 0.5 µM)
# Summary of the method: (§2)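 The day after seeding in 1536-well plates, lung cancer cell lines were treated by pin tool with a single drug, or with a fixed anchor-drug dose together with five library-drug doses (not always all listed) in √10 steps. After 5 days, a combined fix-and-stain solution (final 0.05% Triton X-100, 1% formaldehyde, 1 ug/ml Hoechst) was added. Nuclei counted on 4× images gave relative viability as treated counts over vehicle counts, reported as the median of duplicate plates.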
# Fedratinib + Pemetrexed = compound: Cc1cnc(Nc2ccc(OCCN3CCCC3)cc2)nc1Nc1cccc(S(=O)(=O)NC(C)(C)C)c1 [Fedratinib] + Nc1nc2[nH]cc(CCc3ccc(C(=O)N[C@@H](CCC(=O)O)C(=O)O)cc3)c2c(=O)[nH]1 [Pemetrexed] (partner 0.2 µM)
# Summary of the method: as §2
# Fedratinib + Vorinostat = compound: Cc1cnc(Nc2ccc(OCCN3CCCC3)cc2)nc1Nc1cccc(S(=O)(=O)NC(C)(C)C)c1 [Fedratinib] + O=C(CCCCCCC(=O)Nc1ccccc1)NO [Vorinostat] (partner 1 µM)
# Summary of the method: as §2
Cell Line,relative viability (GW-2580; 0.08 µM),relative viability (GW-2580; 0.8 µM),relative viability (GW-2580; 2.53 µM),relative viability (GW-2580; 8 µM),relative viability (Fedratinib; 0.1 µM),relative viability (Fedratinib; 0.3162 µM),relative viability (Fedratinib; 1 µM),relative viability (GW-2580 + OSI-027; first compound 0.08 µM),relative viability (GW-2580 + OSI-027; first compound 0.8 µM),relative viability (GW-2580 + OSI-027; first compound 2.53 µM),relative viability (GW-2580 + OSI-027; first compound 8 µM),relative viability (Fedratinib + Pemetrexed; first compound 0.1 µM),relative viability (Fedratinib + Pemetrexed; first compound 0.3162 µM),relative viability (Fedratinib + Pemetrexed; first compound 1 µM),relative viability (Fedratinib + Vorinostat; first compound 0.1 µM),relative viability (Fedratinib + Vorinostat; first compound 0.3162 µM),relative viability (Fedratinib + Vorinostat; first compound 1 µM)
NCI-H1915,1.04,1.02,1.07,0.969,1.03,0.97,0.658,0.638,0.649,0.626,0.598,0.599,0.464,0.425,0.539,0.507,0.459
NCI-H1944,1,0.999,0.972,0.886,0.965,1.01,0.909,0.463,0.46,0.439,0.365,0.665,0.643,0.624,0.668,0.571,0.516
NCI-H1975,1.04,1.12,0.935,0.87,0.933,0.939,0.798,0.952,0.829,0.709,0.58,0.29,0.306,0.272,0.744,0.702,0.603
NCI-H1993,0.86,1.16,0.764,1.1,0.822,1.03,0.835,0.656,0.559,0.55,0.561,0.523,0.513,0.589,0.819,0.872,0.864
NCI-H2009,1.06,0.996,0.967,0.888,0.956,1.08,0.987,0.665,0.707,0.619,0.633,0.985,0.97,1.01,0.639,0.696,0.695
NCI-H2023,1.12,1.07,0.933,1.06,1.02,0.962,0.754,0.512,0.459,0.39,0.393,0.272,0.254,0.158,0.826,0.626,0.547
NCI-H2085,1.05,1.03,0.987,0.954,0.929,1.02,0.883,0.985,0.86,0.653,0.886,0.88,1.06,0.805,0.77,0.825,0.787
NCI-H2087,1,1.08,0.942,0.933,1,0.99,0.856,0.681,0.675,0.564,0.588,0.739,0.651,0.731,0.728,0.734,0.825
NCI-H2126,1.02,1.01,0.979,1.05,0.95,0.98,0.927,0.697,0.793,0.706,0.716,0.592,0.657,0.626,0.732,0.786,0.708
NCI-H2170,1.02,1.02,0.948,0.972,1.05,1.01,0.9,0.757,0.745,0.735,0.748,0.284,0.27,0.253,0.886,0.776,0.654
NCI-H2228,1.18,1.16,0.921,0.882,0.884,0.785,0.723,0.569,0.6,0.639,0.545,0.331,0.284,0.294,0.744,0.589,0.545
NCI-H2342,0.921,1.05,0.775,0.97,1.08,1.06,0.994,0.574,0.671,0.519,0.62,0.801,0.765,0.775,0.94,0.71,0.926
NCI-H2347,0.989,1.1,0.88,1.07,1.04,0.932,0.938,0.341,0.364,0.371,0.433,0.335,0.419,0.433,0.533,0.494,0.587
NCI-H2405,0.99,1.13,0.902,0.936,0.937,0.939,0.834,0.643,0.668,0.609,0.618,1.07,1.12,0.863,0.946,0.982,0.814
NCI-H3122,1.03,1.09,1.06,1.01,1.05,1.02,0.892,1.28,1.24,1.19,0.895,0.186,0.189,0.197,1.07,1,0.988
PC-3 [JPC-3],1.12,1.14,1.09,0.964,0.987,1.03,0.953,0.75,0.985,0.721,0.724,1.04,1.23,1.03,0.719,0.978,0.676
PC-14,1.07,1.19,0.966,0.969,0.986,1.09,0.906,1,1.08,0.671,0.817,0.124,0.132,0.131,0.761,0.83,0.727
RERF-LC-KJ,1.08,1.15,0.921,0.977,1.03,1.04,0.917,0.584,0.606,0.501,0.484,0.454,0.463,0.502,0.66,0.669,0.573
